Measured values from patent US8138175B2, “Heterocyclyl compounds” (Hoffmann-La Roche Inc., priority 2008, dated 2012).

Target: T1, human chemokine receptor 2 isoform B (Homo sapiens, UniProt P41597)
T1 construct: host or cells: CHOK1-CCR2B-A5 (CHO-K1) cells
T1 sequence (P41597 1-360 isoform P41597-2): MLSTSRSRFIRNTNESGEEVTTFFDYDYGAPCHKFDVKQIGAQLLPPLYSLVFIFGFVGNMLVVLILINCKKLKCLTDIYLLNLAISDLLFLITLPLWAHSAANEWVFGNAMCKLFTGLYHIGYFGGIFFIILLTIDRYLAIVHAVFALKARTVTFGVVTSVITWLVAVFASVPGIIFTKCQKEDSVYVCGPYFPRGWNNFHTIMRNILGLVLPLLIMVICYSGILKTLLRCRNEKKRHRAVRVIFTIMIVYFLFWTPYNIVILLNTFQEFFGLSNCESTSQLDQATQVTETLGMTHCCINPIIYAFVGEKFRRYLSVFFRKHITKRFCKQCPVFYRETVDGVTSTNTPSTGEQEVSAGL
Assay: Calcium mobilization assay
Assay type: cell-based
Details: Ca mobilization assay for CCR2; CHOK1-CCR2B-A5 cells; antagonist activity against 20 nM MCP-1; FLIPR, Fluo-4
Method: Calcium Mobilization Assay
CHOK1-CCR2B-A5 cells (from Euroscreen) stably overexpressing the human chemokine receptor 2 isoform B were cultured in Nutrient Hams F12 medium supplemented with 5% FBS, 100 U/ml penicillin, 100 μg/ml streptomycin, 400 μg/ml G418 and 5 μg/ml puromycin.
For the assay cells were grown overnight in 384-well black clear flat bottom polystyrene plates (Costar) at 37° C. at 5% CO2. After washing with DMEM, 20 mM Hepes, 2.5 mM probenecid, 0.1% BSA (DMEM assay buffer) cells were loaded with 4 μM Fluo-4 in the same DMEM assay buffer for 2 hours at 30° C. Excess dye was removed and cells were washed with DMEM assay buffer. 384-well compound plates were prepared with DMEM assay buffer/0.5% dimethyl sulfoxide with or without various concentrations of test compounds. Usually compounds were tested for agonist and antagonist activity.
Test compounds were added to the assay plate and agonist activity was monitored as fluorescence for 80 seconds with a FLIPR (488 nm excitation; 510-570 nm emission; Molecular Devices). After 20-30 min. of incubation at 30° C., 20 nM MCP-1 (R&D; Roche) was added and fluorescence was monitored again for 80 seconds. Increases in intracellular calcium are reported as maximum fluorescence after agonist exposure minus basal fluorescence before exposure. Antagonist activity is indicated as inhibitor concentration required for 50% inhibition of specific calcium increases.

IC50 | Structure (SMILES)
0.052 µM | COC(=O)[C@H](CCN1CCC2(CC2)[C@H](O)C1)N1CC(C)N(c2ccc(Cl)c(Cl)c2)CCC1=O (mixture of isomers) [Example 67, (S)-2-[(R,S)-4-(3,4-dichloro-phenyl)-3-methyl-7-oxo-[1,4]diazepan-1-yl]-4-((S)-4-hydroxy-6-aza-spiro[2.5]oct-6-yl)-butyric acid methyl ester]
0.2 µM | CN(C)C(=O)C(CCCN1CCC(C)(O)CC1)N1CCN(c2cccc(C(F)(F)F)c2)CCC1=O (racemic) [Example 25, (rac)-5-(4-Hydroxy-4-methyl-piperidin-1-yl)-2-[7-oxo-4-(3-trifluoromethyl-phenyl)-[1,4]diazepan-1-yl]-pentanoic acid dimethylamide]
0.64 µM | COC(=O)C(CCCN1CCC(C)(O)CC1)N1CCN(c2cccc(C(F)(F)F)c2)CCC1=O (racemic) [Example 29, (rac)-5-(4-Hydroxy-4-methyl-piperidin-1-yl)-2-[7-oxo-4-(3-trifluoromethyl-phenyl)-[1,4]diazepan-1-yl]-pentanoic acid methyl ester]
0.046 µM | CC1CN([C@@H](CO)CCN2CCC3(CC3)[C@H](O)C2)C(=O)CCN1c1ccc(Cl)c(Cl)c1 (mixture of isomers) [Example 68, (R,S)-1-(3,4-Dichloro-phenyl)-4-[(S)-3-((S)-4-hydroxy-6-aza-spiro[2.5]oct-6-yl)-1-hydroxymethyl-propyl]-2-methyl-[1,4]diazepan-5-one]
0.011 µM | CC1CN(C(CO)CCN2CCC3(CC3)[C@H](O)C2)C(=O)CCN1c1ccc(Cl)c(Cl)c1 (stereo in doubt) [Example 69, (R)-1-(3,4-Dichloro-phenyl)-4-[(S)-3-((S)-4-hydroxy-6-aza-spiro[2.5]oct-6-yl)-1-hydroxymethyl-propyl]-2-methyl-[1,4]diazepan-5-one]
0.04 µM | COC(=O)[C@H](CCN1CCC2(CC2)[C@H](O)C1)N1CCN(c2ccc(Cl)c(Cl)c2)CCC1=O [Example 1, (S)-2-[4-(3,4-Dichloro-phenyl)-7-oxo-[1,4]diazepan-1-yl]-4-((S)-4-hydroxy-6-aza-spiro[2.5]oct-6-yl)-butyric acid methyl ester]
0.01 µM | O=C1CCN(c2ccc(Cl)c(Cl)c2)CCN1[C@H](CO)CCN1CCC2(CC2)[C@H](O)C1 [Example 2, 1-(3,4-Dichloro-phenyl)-4-[(S)-3-((S)-4-hydroxy-6-aza-spiro[2.5]oct-6-yl)-1-hydroxymethyl-propyl]-[1,4]diazepan-5-one]
0.13 µM | COC(=O)[C@H](CCN1CCC2(CC2)[C@H](O)C1)N1CCN(c2cccc(Cl)c2)CCC1=O [Example 3, (S)-2-[4-(3-Chloro-phenyl)-7-oxo-[1,4]diazepan-1-yl]-4-((S)-4-hydroxy-6-aza-spiro[2.5]oct-6-yl)-butyric acid methyl ester]
0.06 µM | O=C1CCN(c2cccc(Cl)c2)CCN1[C@H](CO)CCN1CCC2(CC2)[C@H](O)C1 [Example 4, 1-(3-Chloro-phenyl)-4-[(S)-3-((S)-4-hydroxy-6-aza-spiro[2.5]oct-6-yl)-1-hydroxymethyl-propyl]-[1,4]diazepan-5-one]
0.02 µM | COC(=O)[C@H](CCN1CCC2(CC2)[C@H](O)C1)N1CCN(c2cccc(C(F)(F)F)c2)CCC1=O [Example 5, (S)-4-((S)-4-Hydroxy-6-aza-spiro[2.5]oct-6-yl)-2-[7-oxo-4-(3-trifluoromethyl-phenyl)-[1,4]diazepan-1-yl]-butyric acid methyl ester]
0.01 µM | O=C1CCN(c2cccc(C(F)(F)F)c2)CCN1[C@H](CO)CCN1CCC2(CC2)[C@H](O)C1 [Example 6, 4-[(S)-3-((S)-4-Hydroxy-6-aza-spiro[2.5]oct-6-yl)-1-hydroxymethyl-propyl]-1-(3-trifluoromethyl-phenyl)-[1,4]diazepan-5-one]
0.09 µM | COC(=O)[C@H](CCN1C[C@@H](C)C[C@H](O)C1)N1CCN(c2cccc(C(F)(F)F)c2)CCC1=O [Example 7, (S)-4-((3S,5S)-3-Hydroxy-5-methyl-piperidin-1-yl)-2-[7-oxo-4-(3-trifluoromethyl-phenyl)-[1,4]diazepan-1-yl]-butyric acid methyl ester]
0.6 µM | COC(=O)[C@@H](CCN1CCC2(CC2)[C@H](O)C1)N1CCN(c2cccc(C(F)(F)F)c2)CCC1=O [Example 8, (R)-4-((S)-4-Hydroxy-6-aza-spiro[2.5]oct-6-yl)-2-[7-oxo-4-(3-trifluoromethyl-phenyl)-[1,4]diazepan-1-yl]-butyric acid methyl ester]
0.18 µM | O=C1CCN(c2cccc(C(F)(F)F)c2)CCN1[C@@H](CO)CCN1CCC2(CC2)[C@H](O)C1 [Example 9, 4-[(R)-3-((S)-4-Hydroxy-6-aza-spiro[2.5]oct-6-yl)-1-hydroxymethyl-propyl]-1-(3-trifluoromethyl-phenyl)-[1,4]diazepan-5-one]
0.4 µM | COC(=O)[C@H](CCN1CCC2(CC2)[C@H](O)C1)N1CCN(c2ccc(OC(F)(F)F)cc2)CCC1=O [Example 11, (S)-4-((S)-4-Hydroxy-6-aza-spiro[2.5]oct-6-yl)-2-[7-oxo-4-(4-trifluoromethoxy-phenyl)-[1,4]diazepan-1-yl]-butyric acid methyl ester]
0.12 µM | O=C1CCN(c2ccc(OC(F)(F)F)cc2)CCN1[C@H](CO)CCN1CCC2(CC2)[C@H](O)C1 [Example 12, 4-[(S)-3-((S)-4-Hydroxy-6-aza-spiro[2.5]oct-6-yl)-1-hydroxymethyl-propyl]-1-(4-trifluoromethoxy-phenyl)-[1,4]diazepan-5-one]
0.03 µM | COC(=O)[C@H](CCN1CCC2(CC2)[C@H](O)C1)N1CCN(c2cccc(OC(F)(F)F)c2)CCC1=O [Example 13, (S)-4-((S)-4-Hydroxy-6-aza-spiro[2.5]oct-6-yl)-2-[7-oxo-4-(3-trifluoromethoxy-phenyl)-[1,4]diazepan-1-yl]-butyric acid methyl ester]
0.01 µM | O=C1CCN(c2cccc(OC(F)(F)F)c2)CCN1[C@H](CO)CCN1CCC2(CC2)[C@H](O)C1 [Example 14, 4-[(S)-3-((S)-4-Hydroxy-6-aza-spiro[2.5]oct-6-yl)-1-hydroxymethyl-propyl]-1-(3-trifluoromethoxy-phenyl)-[1,4]diazepan-5-one]
0.06 µM | COC(=O)C(CCN1CCC2(CC2)[C@H](O)C1)N1CCN(c2cccc(C(F)(F)F)c2)CCC1=O (stereo partly drawn) [Example 15, (R,S)-4-((S)-4-Hydroxy-6-aza-spiro[2.5]oct-6-yl)-2-[7-oxo-4-(3-trifluoromethyl-phenyl)-[1,4]diazepan-1-yl]-butyric acid methyl ester]
0.01 µM | O=C1CCN(c2cccc(C(F)(F)F)c2)CCN1C(CO)CCN1CCC2(CC2)[C@H](O)C1 (stereo partly drawn) [Example 16, 4-[(R,S)-3-((S)-4-Hydroxy-6-aza-spiro[2.5]oct-6-yl)-1-hydroxymethyl-propyl]-1-(3-trifluoromethyl-phenyl)-[1,4]diazepan-5-one]
0.14 µM | CN(C)C(=O)C(CCN1CCC2(CC2)[C@H](O)C1)N1CCN(c2cccc(C(F)(F)F)c2)CCC1=O (stereo partly drawn) [Example 17, (R,S)-4-((S)-4-Hydroxy-6-aza-spiro[2.5]oct-6-yl)-N,N-dimethyl-2-[7-oxo-4-(3-trifluoromethyl-phenyl)-[1,4]diazepan-1-yl]-butyramide]
0.65 µM | C[C@H]1C[C@H](O)CN(CCC(C(=O)N(C)C)N2CCN(c3cccc(C(F)(F)F)c3)CCC2=O)C1 (stereo partly drawn) [Example 18, (R,S)-4-((3S,5S)-3-Hydroxy-5-methyl-piperidin-1-yl)-N,N-dimethyl-2-[7-oxo-4-(3-trifluoromethyl-phenyl)-[1,4]diazepan-1-yl]-butyramide]
0.41 µM | COC(=O)[C@H](CCN1CCC2(CC2)[C@H](O)C1)N1CCN(c2ccc(C(F)(F)F)cc2)CCC1=O [Example 19, (S)-4-((S)-4-Hydroxy-6-aza-spiro[2.5]oct-6-yl)-2-[7-oxo-4-(4-trifluoromethyl-phenyl)-[1,4]diazepan-1-yl]-butyric acid methyl ester]
0.35 µM | O=C1CCN(c2ccc(C(F)(F)F)cc2)CCN1[C@H](CO)CCN1CCC2(CC2)[C@H](O)C1 [Example 20, 4-[(S)-3-((S)-4-Hydroxy-6-aza-spiro[2.5]oct-6-yl)-1-hydroxymethyl-propyl]-1-(4-trifluoromethyl-phenyl)-[1,4]diazepan-5-one]
0.1 µM | CN(C)C(=O)[C@H](CCN1CCC2(CC2)[C@H](O)C1)N1CCN(c2cccc(C(F)(F)F)c2)CCC1=O [Example 22, (S)-4-((S)-4-Hydroxy-6-aza-spiro[2.5]oct-6-yl)-N,N-dimethyl-2-[7-oxo-4-(3-trifluoromethyl-phenyl)-[1,4]diazepan-1-yl]-butyramide]
